Measured values reported in PMC5218480 (PLoS ONE, 2017).

Test system: MV-4-11 cells
Assay: Gene expression microarray analysis (Affymetrix PrimeView) and GSEA
Format: cell-based, human
Parameters: RFU PODN (11730768_x_at) / Fold change /veh PODN (11730768_x_at) / RFU LINC00158 (11744669_a_at) / Fold change /veh LINC00158 (11744669_a_at) / RFU DUSP10 (11751237_a_at) / Fold change /veh DUSP10 (11751237_a_at) / RFU ID3 (11757404_x_at) / Fold change /veh ID3 (11757404_x_at) / RFU PLEKHG5 (11737974_s_at) / Fold change /veh PLEKHG5 (11737974_s_at) / RFU LRRC4B (11730491_at) / Fold change /veh LRRC4B (11730491_at) / RFU GIMAP4 (11747438_a_at) / Fold change /veh GIMAP4 (11747438_a_at) / RFU KRT8 (11758183_x_at) / Fold change /veh KRT8 (11758183_x_at) / RFU CNN1 (11734310_a_at) / Fold change /veh CNN1 (11734310_a_at) / RFU VPS37D (11726825_at) / Fold change /veh VPS37D (11726825_at) / RFU C10orf10 (11716522_x_at) / Fold change /veh C10orf10 (11716522_x_at) / RFU KIR2DL2 /// KIR2DL4 /// KIR2DL5A /// KIR2DL5B /// KIR2DS1 /// KIR2DS2 /// KIR2DS3 /// KIR2DS4 /// KIR3DL3 /// KIR3DL3 /// KIR3DS1 (11738374_at) / Fold change /veh KIR2DL2 /// KIR2DL4 /// KIR2DL5A /// KIR2DL5B /// KIR2DS1 /// KIR2DS2 /// KIR2DS3 /// KIR2DS4 /// KIR3DL3 /// KIR3DL3 /// KIR3DS1 (11738374_at) / RFU C1QL1 (11718748_at) / Fold change /veh C1QL1 (11718748_at) / RFU TMPRSS4 (11747572_a_at) / Fold change /veh TMPRSS4 (11747572_a_at) / RFU HAMP (11756126_x_at) / Fold change /veh HAMP (11756126_x_at) / RFU RNFT2 (11725882_a_at) / Fold change /veh RNFT2 (11725882_a_at) / RFU NR4A2 (11747474_a_at) / Fold change /veh NR4A2 (11747474_a_at) / RFU ABCC12 (11746883_a_at) / Fold change /veh ABCC12 (11746883_a_at) / RFU TMEM136 (11760407_x_at) / Fold change /veh TMEM136 (11760407_x_at) / RFU CLDN22 /// WWC2 (11732394_at) / Fold change /veh CLDN22 /// WWC2 (11732394_at) / RFU HLA-DPB1 (11760878_x_at) / Fold change /veh HLA-DPB1 (11760878_x_at) / RFU SPINT1 (11716480_a_at) / Fold change /veh SPINT1 (11716480_a_at) / RFU GAP43 (11754022_s_at) / Fold change /veh GAP43 (11754022_s_at) / RFU A4GNT (11735810_at) / Fold change /veh A4GNT (11735810_at) / RFU PRB3 (11715151_x_at) / Fold change /veh PRB3 (11715151_x_at) / RFU TUBB4B (11761932_at) / Fold change /veh TUBB4B (11761932_at) / RFU CAPN14 (11732068_a_at) / Fold change /veh CAPN14 (11732068_a_at) / RFU TMCC2 (11721928_a_at) / Fold change /veh TMCC2 (11721928_a_at) / RFU IRGQ (11745062_a_at) / Fold change /veh IRGQ (11745062_a_at) / RFU FAM174B (11720279_a_at) / Fold change /veh FAM174B (11720279_a_at) / RFU TMPRSS4 (11748680_a_at) / Fold change /veh TMPRSS4 (11748680_a_at) / RFU FAM212B (11763350_a_at) / Fold change /veh FAM212B (11763350_a_at) / RFU PLEKHG5 (11743358_a_at) / Fold change /veh PLEKHG5 (11743358_a_at) / RFU ZSCAN30 (11745921_a_at) / Fold change /veh ZSCAN30 (11745921_a_at) / RFU CMKLR1 (11741424_a_at) / Fold change /veh CMKLR1 (11741424_a_at) / RFU LOC101060620 /// MAPK8IP1 (11723275_at) / Fold change /veh LOC101060620 /// MAPK8IP1 (11723275_at) / RFU SPTSSB (11747773_x_at) / Fold change /veh SPTSSB (11747773_x_at) / RFU PRSS12 (11739890_at) / Fold change /veh PRSS12 (11739890_at) / RFU BIN1 (11741810_x_at) / Fold change /veh BIN1 (11741810_x_at) / RFU WNT11 (11732464_a_at) / Fold change /veh WNT11 (11732464_a_at) / RFU C10orf10 (11716521_a_at) / Fold change /veh C10orf10 (11716521_a_at) / RFU C5orf56 (11738089_at) / Fold change /veh C5orf56 (11738089_at) / RFU CYB561 (11721691_x_at) / Fold change /veh CYB561 (11721691_x_at) / RFU ANKRD19P (11752326_a_at) / Fold change /veh ANKRD19P (11752326_a_at) / RFU OR2T12 /// OR2T33 /// OR2T8 (11738714_s_at) / Fold change /veh OR2T12 /// OR2T33 /// OR2T8 (11738714_s_at) / RFU VCAN (11748164_a_at) / Fold change /veh VCAN (11748164_a_at) / RFU JSRP1 (11732532_at) / Fold change /veh JSRP1 (11732532_at) / RFU KRTAP10-11 (11738290_x_at) / Fold change /veh KRTAP10-11 (11738290_x_at) / RFU MYO3A (11730013_a_at) / Fold change /veh MYO3A (11730013_a_at) / RFU EBF3 (11725865_a_at) / Fold change /veh EBF3 (11725865_a_at) / RFU CAMK2N1 (11719241_x_at) / Fold change /veh CAMK2N1 (11719241_x_at) / RFU C5orf56 (11738088_a_at) / Fold change /veh C5orf56 (11738088_a_at) / RFU OLFML3 (11715873_a_at) / Fold change /veh OLFML3 (11715873_a_at) / RFU LOC100653217 /// NTM (11731650_a_at) / Fold change /veh LOC100653217 /// NTM (11731650_a_at) / RFU MAPK11 (11762145_a_at) / Fold change /veh MAPK11 (11762145_a_at) / RFU FIZ1 (11724087_x_at) / Fold change /veh FIZ1 (11724087_x_at) / RFU OASL (11726364_x_at) / Fold change /veh OASL (11726364_x_at) / RFU SOX15 (11748057_x_at) / Fold change /veh SOX15 (11748057_x_at) / RFU CD79A (11719716_a_at) / Fold change /veh CD79A (11719716_a_at) / RFU HIST1H1D (11736915_at) / Fold change /veh HIST1H1D (11736915_at) / RFU CASKIN2 (11723855_a_at) / Fold change /veh CASKIN2 (11723855_a_at) / RFU LOC730098 (11760151_x_at) / Fold change /veh LOC730098 (11760151_x_at) / RFU OR4N2 (11742367_at) / Fold change /veh OR4N2 (11742367_at) / RFU PRRT2 (11749266_a_at) / Fold change /veh PRRT2 (11749266_a_at) / RFU SNX32 (11753110_a_at) / Fold change /veh SNX32 (11753110_a_at) / RFU CDHR5 (11726645_a_at) / Fold change /veh CDHR5 (11726645_a_at) / RFU RCAN1 (11760418_a_at) / Fold change /veh RCAN1 (11760418_a_at) / RFU FAM167A (11723789_a_at) / Fold change /veh FAM167A (11723789_a_at) / RFU FAM26E (11764081_at) / Fold change /veh FAM26E (11764081_at) / RFU ISYNA1 (11749810_s_at) / Fold change /veh ISYNA1 (11749810_s_at) / RFU ACY1 (11761880_at) / Fold change /veh ACY1 (11761880_at) / RFU 11764098_at / Fold change /veh 11764098_at / RFU SAMD14 (11745864_x_at) / Fold change /veh SAMD14 (11745864_x_at) / RFU NPB (11741838_a_at) / Fold change /veh NPB (11741838_a_at) / RFU TMPRSS6 (11731388_a_at) / Fold change /veh TMPRSS6 (11731388_a_at) / RFU KRTAP10-2 (11738614_at) / Fold change /veh KRTAP10-2 (11738614_at) / RFU ARHGAP8 /// PRR5-ARHGAP8 (11727945_x_at) / Fold change /veh ARHGAP8 /// PRR5-ARHGAP8 (11727945_x_at) / RFU KRTAP5-7 /// NADSYN1 (11734609_at) / Fold change /veh KRTAP5-7 /// NADSYN1 (11734609_at) / RFU RASL12 (11751679_a_at) / Fold change /veh RASL12 (11751679_a_at) / RFU CDKN2B (11736163_a_at) / Fold change /veh CDKN2B (11736163_a_at) / RFU PRF1 (11729649_at) / Fold change /veh PRF1 (11729649_at) / RFU, ZNF638 /// ZNF638-IT1 / Fold change vs veh, ZNF638 /// ZNF638-IT1 / RFU, PANK3 / Fold change vs veh, PANK3 / RFU, SH3YL1 / Fold change vs veh, SH3YL1 / RFU, ZEB2 / Fold change vs veh, ZEB2 / RFU, NRIP1 / Fold change vs veh, NRIP1 / RFU, PTTG1IP / Fold change vs veh, PTTG1IP / RFU, CAPN2 / Fold change vs veh, CAPN2 / RFU, MED14 / Fold change vs veh, MED14 / RFU, SNORA58 / Fold change vs veh, SNORA58 / RFU, C1orf63 / Fold change vs veh, C1orf63 / RFU, LRRFIP1 / Fold change vs veh, LRRFIP1 / RFU, NDUFAF7 / Fold change vs veh, NDUFAF7 / RFU, SLC12A2 / Fold change vs veh, SLC12A2 / RFU, IBTK / Fold change vs veh, IBTK / RFU, ESF1 / Fold change vs veh, ESF1 / Fold change vs veh, TMEM50B / RFU, TAOK1 / Fold change vs veh, TAOK1 / RFU, ACBD3 / Fold change vs veh, ACBD3 / RFU, TMA16 / Fold change vs veh, TMA16 / RFU, RWDD3 / Fold change vs veh, RWDD3 / RFU, BCAT1 / Fold change vs veh, BCAT1 / RFU, EDEM3 / Fold change vs veh, EDEM3 / RFU, TMEM33 / Fold change vs veh, TMEM33 / RFU, WDR75 / Fold change vs veh, WDR75 / RFU, AHCTF1 / Fold change vs veh, AHCTF1 / RFU, TFRC / Fold change vs veh, TFRC / RFU, ZDHHC17 / Fold change vs veh, ZDHHC17 / RFU, NOM1 / Fold change vs veh, NOM1 / RFU, ARL8B / Fold change vs veh, ARL8B / RFU, ZBTB11 / Fold change vs veh, ZBTB11 / RFU, TAMM41 / Fold change vs veh, TAMM41 / RFU, KIAA1704 /// LOC100996395 / Fold change vs veh, KIAA1704 /// LOC100996395 / RFU, ING1 / Fold change vs veh, ING1 / RFU, TRMT61B / Fold change vs veh, TRMT61B / RFU, FUBP3 / Fold change vs veh, FUBP3 / RFU, TP53 / Fold change vs veh, TP53 / RFU, TNKS2 / Fold change vs veh, TNKS2 / RFU, ZFP14 / Fold change vs veh, ZFP14 / RFU, ACTR2 / Fold change vs veh, ACTR2 / RFU, PPP3R1 / Fold change vs veh, PPP3R1 / RFU, PIK3R1 / Fold change vs veh, PIK3R1 / RFU, HNRNPA1 / Fold change vs veh, HNRNPA1 / RFU, RNF170 / Fold change vs veh, RNF170 / RFU, ZNF28 / Fold change vs veh, ZNF28 / RFU, RNGTT / Fold change vs veh, RNGTT / RFU, OGT / Fold change vs veh, OGT / RFU, BRD1 / Fold change vs veh, BRD1 / RFU, MARS / Fold change vs veh, MARS / RFU, ZNF655 / Fold change vs veh, ZNF655 / RFU, FAHD1 / Fold change vs veh, FAHD1 / RFU, BDP1 / Fold change vs veh, BDP1 / RFU, LRRCC1 / Fold change vs veh, LRRCC1 / RFU, ARID1A / Fold change vs veh, ARID1A / RFU, ZNF146 / Fold change vs veh, ZNF146 / RFU, ZNF330 / Fold change vs veh, ZNF330 / RFU, GPN3 / Fold change vs veh, GPN3 / RFU, C9orf123 / Fold change vs veh, C9orf123 / RFU, N4BP2L2 / Fold change vs veh, N4BP2L2 / RFU, ARFIP1 / Fold change vs veh, ARFIP1 / RFU, FAM179B / Fold change vs veh, FAM179B / RFU, BCL10 / Fold change vs veh, BCL10 / RFU, UHRF1BP1L / Fold change vs veh, UHRF1BP1L / RFU, BET1 / Fold change vs veh, BET1 / RFU, CNOT2 / Fold change vs veh, CNOT2 / RFU, ZNF268 / Fold change vs veh, ZNF268 / Fold change vs veh, ZNF507 / RFU, DGCR2 / Fold change vs veh, DGCR2 / RFU, WDSUB1 / Fold change vs veh, WDSUB1 / Fold change vs veh, HSP90B1 /// MIR3652 / RFU, ADSS / Fold change vs veh, ADSS / RFU, GK / Fold change vs veh, GK / RFU, ZNF148 / Fold change vs veh, ZNF148 / RFU, TAF9 / Fold change vs veh, TAF9 / RFU, SLC1A5 / Fold change vs veh, SLC1A5 / RFU, SLMO2 / Fold change vs veh, SLMO2 / RFU, ABCC4 / Fold change vs veh, ABCC4 / RFU, LOC101060439 /// RAP1B / Fold change vs veh, LOC101060439 /// RAP1B / RFU, RFX7 / Fold change vs veh, RFX7 / RFU, GTPBP10 / Fold change vs veh, GTPBP10 / RFU, CNEP1R1 / Fold change vs veh, CNEP1R1 / RFU, BIVM-ERCC5 /// ERCC5 / Fold change vs veh, BIVM-ERCC5 /// ERCC5 / RFU, ILF3 / Fold change vs veh, ILF3 / RFU 11762660_at / Fold change /veh 11762660_at / RFU VCAN (11757783_s_at) / Fold change /veh VCAN (11757783_s_at) / RFU DDX43 (11728927_at) / Fold change /veh DDX43 (11728927_at) / RFU KRT8 (11758188_x_at) / Fold change /veh KRT8 (11758188_x_at) / RFU NKD1 (11759106_at) / Fold change /veh NKD1 (11759106_at) / RFU SRD5A1 (11742802_a_at) / Fold change /veh SRD5A1 (11742802_a_at) / RFU TPSAB1 /// TPSB2 (11721975_s_at) / Fold change /veh TPSAB1 /// TPSB2 (11721975_s_at) / RFU GSTM3 (11746129_a_at) / Fold change /veh GSTM3 (11746129_a_at) / RFU IL23R (11737362_x_at) / Fold change /veh IL23R (11737362_x_at) / RFU TMEM51 (11727254_a_at) / Fold change /veh TMEM51 (11727254_a_at) / RFU PIWIL2 (11732686_x_at) / Fold change /veh PIWIL2 (11732686_x_at) / RFU ORM1 (11744905_x_at) / Fold change /veh ORM1 (11744905_x_at) / RFU CCDC152 (11743942_at) / Fold change /veh CCDC152 (11743942_at) / RFU ECM1 (11717891_a_at) / Fold change /veh ECM1 (11717891_a_at) / RFU IL23R (11748794_a_at) / Fold change /veh IL23R (11748794_a_at) / RFU TNFAIP8L3 (11732012_x_at) / Fold change /veh TNFAIP8L3 (11732012_x_at) / RFU MBOAT4 (11741988_at) / Fold change /veh MBOAT4 (11741988_at) / RFU 11764193_at / Fold change /veh 11764193_at / RFU TMEM53 (11763286_at) / Fold change /veh TMEM53 (11763286_at) / RFU MAGEB2 (11727129_at) / Fold change /veh MAGEB2 (11727129_at) / RFU TMEM200A (11744735_a_at) / Fold change /veh TMEM200A (11744735_a_at) / RFU CCDC152 (11751479_a_at) / Fold change /veh CCDC152 (11751479_a_at) / RFU FAM211A (11726209_a_at) / Fold change /veh FAM211A (11726209_a_at) / RFU RGS16 (11746705_a_at) / Fold change /veh RGS16 (11746705_a_at) / RFU VCAN (11755009_s_at) / Fold change /veh VCAN (11755009_s_at) / RFU RHOB (11743442_s_at) / Fold change /veh RHOB (11743442_s_at) / RFU RGS16 (11720943_a_at) / Fold change /veh RGS16 (11720943_a_at) / RFU RGS16 (11720944_at) / Fold change /veh RGS16 (11720944_at) / RFU, VPS4B / Fold change vs veh, VPS4B / RFU, CREB1 / Fold change vs veh, CREB1 / RFU, DNAJC13 / Fold change vs veh, DNAJC13 / RFU, GNAQ / Fold change vs veh, GNAQ / RFU, CDK5R1 / Fold change vs veh, CDK5R1 / RFU, ZRANB3 / Fold change vs veh, ZRANB3 / RFU, CUL4A / Fold change vs veh, CUL4A / RFU, CCNY / Fold change vs veh, CCNY / RFU, UFL1 / Fold change vs veh, UFL1 / RFU, COG3 / Fold change vs veh, COG3 / RFU, DIAPH2 / Fold change vs veh, DIAPH2 / RFU, SKA2 / Fold change vs veh, SKA2 / RFU, AFF3 / Fold change vs veh, AFF3 / RFU, LMF1 / Fold change vs veh, LMF1 / RFU, IPO11 / Fold change vs veh, IPO11 / RFU, DFFB / Fold change vs veh, DFFB / RFU, FOXP1 / Fold change vs veh, FOXP1 / RFU, CARD8 / Fold change vs veh, CARD8 / RFU, STRN3 / Fold change vs veh, STRN3 / RFU, ADK / Fold change vs veh, ADK / RFU, RASSF2 / Fold change vs veh, RASSF2 / RFU, WIPF1 / Fold change vs veh, WIPF1 / RFU, LARP1B / Fold change vs veh, LARP1B / RFU, RASA1 / Fold change vs veh, RASA1 / RFU, RB1 / Fold change vs veh, RB1 / RFU, PPFIA1 / Fold change vs veh, PPFIA1 / RFU, MAT2A / Fold change vs veh, MAT2A / RFU, CCT5 / Fold change vs veh, CCT5 / RFU, WDR92 / Fold change vs veh, WDR92 / RFU, CUX1 / Fold change vs veh, CUX1 / RFU, TTC7A / Fold change vs veh, TTC7A / RFU, TMEM135 / Fold change vs veh, TMEM135 / RFU, DEPTOR / Fold change vs veh, DEPTOR / RFU, CPM / Fold change vs veh, CPM / RFU, DNAJB6 / Fold change vs veh, DNAJB6 / RFU, CACNA2D3 / Fold change vs veh, CACNA2D3 / RFU, DTX4 / Fold change vs veh, DTX4 / RFU, TFCP2 / Fold change vs veh, TFCP2 / RFU, GMCL1 /// GMCL1P1 / Fold change vs veh, GMCL1 /// GMCL1P1 / RFU, AEBP2 / Fold change vs veh, AEBP2 / RFU, SNHG1 /// SNORD22 /// SNORD25 /// SNORD26 /// SNORD27 /// SNORD28 /// SNORD29 /// SNORD31 / Fold change vs veh, SNHG1 /// SNORD22 /// SNORD25 /// SNORD26 /// SNORD27 /// SNORD28 /// SNORD29 /// SNORD31 / Fold change (Aza/veh), C12orf56 (ProbeSet 11735607_a_at) / Fold change (ACY-1035/veh), C12orf56 (ProbeSet 11735607_a_at) / Fold change (Aza/veh), FGFR1OP (ProbeSet 11751329_s_at) / Fold change (ACY-1035/veh), FGFR1OP (ProbeSet 11751329_s_at) / Fold change (Aza/veh), VPS36 (ProbeSet 11739960_a_at) / Fold change (ACY-1035/veh), VPS36 (ProbeSet 11739960_a_at) / RFU SYPL1 (11715823_x_at) / Fold change /veh SYPL1 (11715823_x_at) / RFU IGFBP7 (11715501_s_at) / Fold change /veh IGFBP7 (11715501_s_at) / RFU REEP3 (11722064_at) / Fold change /veh REEP3 (11722064_at) / RFU IGLL1 (11728026_x_at) / Fold change /veh IGLL1 (11728026_x_at): dose or concentration left out as unconfirmed
Settings: ProbeSet 11723475_a_at; LIST B

Nc1ncn([C@@H]2O[C@H](CO)[C@@H](O)[C@H]2O)c(=O)n1 [azacitidine]
Fold change vs veh, TRMT61B: 0.91
